Reference: US20230158102A1 (priority 2020, published 2023)
Entries after “also recorded” stand apart in the source; their conditions may differ. Like-named read-outs stand apart in the source and are kept apart here. Numbered stars: 1 amine (or outer) side, 2 acyl side, 3 side chain; on linkers, the order of the positions; unused ones are H or OH. Bridge positions count the residues as written; N and C are the ends. Square brackets hold non-standard residues; d marks the D form. Peptide text beside a SMILES is read from it. X2 = CC[C@H](C)[C@@H](N[*:1])[C@@H](O)CC(=O)[*:2]; NMeY = CN[C@@H](Cc1ccc(O)cc1)C(=O)O; dNMeL = CN[C@H](CC(C)C)C(=O)O; Aib = CC(C)(N)C(=O)O

How the values were obtained:
C-reactive protein = C-reactive protein tests in COVID-19 patients treated with PLD; format: in vivo, human
Procedure: The effect of PLD on inflammatory cytokines was also measured for patients 5, 7 and 9 and the results of C-reactive protein tests are shown in FIG. 36.

Huh-7 cells = settings: Huh-7, 50 nM, 5 nM and 0.5 nM, 24 hpi
HCoV-229E = format: cell-based
SARS-CoV-2 (COVID-19) = experiment: Study APLICOV-PC (NCT04382066): efficacy in patients hospitalised for COVID-19; format: in vivo, human
in vitro = settings: human
[1] = test system: HIV-1 (recombinant virus NL4.3 Luc); experiment: microbe, parasite or virus in culture; format: cell-based; settings: Human immunodeficiency virus 1, MT2, read-out: IC50 (antiviral activity); MT-2 cells infected with NL4.3 Luc, 48 hours
[2] = test system: HIV-1 (recombinant virus NL4.3 Luc); experiment: microbe, parasite or virus in culture; format: cell-based; settings: Human immunodeficiency virus 1, PBMC, read-out: IC50 (antiviral activity); preactivated PBMCs infected with NL4.3 Luc, 48 hours
[3] = interim results, 8 evaluable patients

| Structure (SMILES) | Acute fall of C-reactive protein seen by day (C-reactive protein; patient 5 (PLD 1.5 mg×3)) [days] | Acute fall of C-reactive protein seen by day (C-reactive protein; patients 7 and 9 (PLD 2.0 mg×3)) [days] | Cell growth / viability (fluorescence images) (Huh-7 cells) | Antiviral activity (fluorescence images) (HCoV-229E) | Clinical course (single patient) (SARS-CoV-2 (COVID-19); PLD 1.5 mg×3, interim results) | Clinical course (single patient) (SARS-CoV-2 (COVID-19); PLD 2.0 mg×3, interim results) | PCR COVID 19 test at day 7 (single patient) (SARS-CoV-2 (COVID-19); PLD 2.0 mg×3, interim results) | Removal of viral burden (SARS-CoV-2 (COVID-19); ad hoc analysis of the first cohort at 1.5 mg and 2 mg) | Evaluable patients requiring post PLD specific anti COVID 19 therapy (SARS-CoV-2 (COVID-19); [3]) | Evaluable patients with SARS-CoV-2 PCR conversion to negative (SARS-CoV-2 (COVID-19); [3]) | Evaluable patients with disease control and major clinical improvements (SARS-CoV-2 (COVID-19); [3]) | Deaths on study (SARS-CoV-2 (COVID-19); interim results, 9 patients) | Need for mechanical ventilation or ICU admission (SARS-CoV-2 (COVID-19); interim results, 9 patients) | CC50 (in vitro) [nM] | IC50 [1] [nM] | IC50 [2] [nM] | Toxic concentrations not reached at (MT-2 cells) [µM] |
| --- | --- | --- | --- | --- | --- | --- | --- | --- | --- | --- | --- | --- | --- | --- | --- | --- | --- |
| CC[C@H](C)[C@H]1NC(=O)[C@@H](NC(=O)C(CC(C)C)N(C)C(=O)[C@@H]2CCCN2C(=O)C(C)=O)[C@@H](C)OC(=O)[C@H](Cc2ccc(OC)cc2)N(C)C(=O)[C@@H]2CCCN2C(=O)[C@H](CC(C)C)NC(=O)[C@@H](C)C(=O)[C@H](C(C)C)OC(=O)C[C@@H]1O (stereo in doubt) [PLD, (−)-(3S,6R,7S,10R,11S,15S,17S,20S,25aS)-11-hydroxy-3-(4-methoxybenzyl)-2,6,17-trimethyl-15-(1-methylethyl)-7-[[(2R)-4-methyl-2-[methyl[[(2S)-1-(2-oxopropanoyl)pyrrolidin-2-yl]carbonyl]amino]pentanoyl]amino]-10-[(1S)-1-methylpropyl]-20-(2-methylpropyl)tetradecahydro-15H-pyrrolo[2,1-f]-[1,15,4,7,10,20]dioxatetrazacyclotricosine-1,4,8,13,16,18,21(17H)-heptone] | ≤ 2 | ≤ 3 | cells remain viable at all concentrations | remarkable antiviral properties are seen across all concentrations | Acute clinical improvement; also recorded: lack of improvement; also recorded: prevented clinical deterioration; also recorded: Major clinical improvement | major clinical improvement | still positive | complete removal of viral burden was noted in the vast majority of patients | 2 out of 8 | 6 out of 8 | 6 out of 8 | no deaths on study | none of the patients required mechanical ventilation or ICU admission |  |  |  |  |
| CC[C@H](C)[C@H]1NC(=O)[C@@H](NC(=O)[C@@H](CC(C)C)NC)[C@@H](C)OC(=O)[C@H](Cc2ccc(OC)cc2)N(C)C(=O)[C@@H]2CCCN2C(=O)[C@H](CC(C)C)NC(=O)C(C)(C)NC(=O)C[C@@H]1O [Compound 3] (H-[dNMeL]T[X2][Aib]LP[NMeY](Me); ester 2-C) |  |  |  |  |  |  |  |  |  |  |  |  |  | ~27000 | 1390 | 160 | > 57.3 |
